From ChEMBL document CHEMBL5727678, “CARM1 inhibitors and uses thereof” (2020)

Test: Enzyme Assay: The assays were all performed in a buffer consisting of 20 mM Bicine (pH=7.6), 1 mM TCEP, 0.005% BSG, and 0.002% Tween 20, prepared on the day of use. Compounds in 100% DMSO (1 ul) were spotted into a polypropylene 384-well V-bottom plates using a Platemate Plus outfitted with a 384-channel head . DMSO (1 ul) was added to Columns 11, 12, 23, 24, rows A-H for the maximum signal control and 1 ul of SAH, a known product and inhibitor of CARM1, was added to columns 11, 12, 23, 24, rows I-P for the minimum signal control. A cocktail (40 ul) containing the CARM1 enzyme was added by Multidrop Combi. The compounds were allowed to incubate with CARM1 for 30 min at room temperature, then a cocktail (10 ul) containing 3H-SAM and peptide was added to initiate the reaction (final volume=51 ul). The final concentrations of the components were as follows: CARM1 was 0.25 nM, 3H-SAM was 30 nM, peptide was 250 nM, SAH in the minimum signal control wells was 1 mM, and the DMSO concentration was 2%. The assays were stopped by the addition of non-radiolabeled SAM (10 ul) to a final concentration of 300 uM, which dilutes the 3H-SAM to a level where its incorporation into the peptide substrate is no longer detectable. 50 ul of the reaction in the 384-well polypropylene plate was then transferred to a 384-well Flashplate and the biotinylated peptides were allowed to bind to the streptavidin surface for at least 1 hour before being washed once with 0.1% Tween20 in a Biotek ELx405 plate washer.

IC50, < 0.1 µM:
CNC[C@@H](O)COc1ccc(Cl)c(-c2nc(-c3c(C)noc3C)c(C)c(N3Cc4c(C)nn(C)c4C3)n2)c1
CNCC(O)COc1cccc(-c2nc(-c3c(C)noc3C)c(C)c(N3CCO[C@H](CNC)C3)n2)c1 (stereo partly drawn)
CNCC(O)COc1cccc(-c2nc(-c3c(C)noc3C)cc(N3C[C@@H]4C[C@H]3CN4C(=O)OC)n2)c1 (stereo partly drawn)
